Experimental data published in patent publication US12466821B2 (Novartis AG, priority 2018, dated 2025).
Like-named read-outs stand apart in the source and are kept apart here.

Tests used:
[1] = molecular target: human CMV DNA polymerase UL54 (Human cytomegalovirus (strain AD169) (HHV-5) (Human herpesvirus 5), UniProt P08546); assay: CMV polymerase biochemical assay (molecular beacon-based)
Procedure, shortened: (§1)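 Readout was beacon fluorescence (ex 480, em 535 nm), used to derive IC50. Each dNTP was at 1.25 uM, with 200 nM primer and 100 nM beacon, after a 30-min RT inhibitor preincubation. Enzyme was 625 pM for HSV UL30 (20 min RT reaction) or 100 pM for CMV UL54 (60 min RT), both sf9-expressed MBP fusions, in pH 7.5 Tris buffer with MgCl2.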

[2] = molecular target: human HSV DNA polymerase UL30 (Human herpesvirus 1 (strain 17) (HHV-1) (Human herpes simplex virus 1), UniProt P04293); assay: HSV polymerase biochemical assay (molecular beacon-based)
Procedure, shortened: as §1

[3] = test system: Luciferase-encoding HCMV, AD169 strain; assay: CMV Luciferase assay (cellular herpesvirus replication); assay type: cell-based
Procedure, shortened: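 Neonatal human dermal fibroblasts were pretreated 1 h with compound (final 0.0159–50 μM or 0.00318–10 μM, 0.5% DMSO), then infected at MOI 1 with AD169 carrying pp28-promoter luciferase. After 72 h at 37 °C, Renilla-Glo luminescence normalized to no-virus and virus-only controls; EC50 by 4-parameter logistic model.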

[4] = Human betaherpesvirus 5, AD169, read-out: CMV-Luc Cellular EC50

Row | Structure (SMILES) | IC50 [1] | IC50 [2] | EC50 [3, 4] | EC50 ([3]; read-out: CMV-Luc Cellular EC50)
1 | CNC1(CN2CCn3c(ccc(C(=O)NCc4ccc(Cl)cc4)c3=O)C2=O)CC1 [Example 204, N-(4-chlorobenzyl)-2-((1-(methylamino)cyclopropyl)methyl)-1,6-dioxo-1,3,4,6-tetrahydro-2H-pyrido[1,2-a] pyrazine-7-carboxamide] | 156 nM | 5470 nM | 4040 nM | –
2 | Cc1cc(C(=O)NCc2ccc(Cl)cc2)c(=O)n2c1C(=O)N(CCN1CCCS1(=O)=O)CC2 [Example 66-1] | 37.5 nM | 125 nM | 417 nM | –
3 | C[C@H](CCO)S(=O)(=O)C1(CN2CCn3c(ccc(C(=O)NCc4ccc(C#N)cc4)c3=O)C2=O)CC1 (single isomer, unassigned) [Example 9, N-(4-cyanobenzyl)-2-((1-((4-hydroxybutan-2-yl)sulfonyl)cyclopropyl)methyl)-1,6-dioxo-2,3,4,6-tetrahydro-1H-pyrido[1,2-a]pyrazine-7-carboxamide] | 1.7 nM | 73.8 nM | 167 nM | –
4 | O=C(NCc1ccc(Cl)cc1)c1ccc2n(c1=O)CCN(CC1(S(=O)(=O)C3COC3)CC1)C2=O [Example 30] | 1.5 nM | 38 nM | 36.3 nM | –
5 | N#Cc1ccc(CNC(=O)c2ccc3n(c2=O)CCN(CC2(S(=O)(=O)C4(CF)CC4)CC2)C3=O)cc1F [Example 14] | 0.3 nM | 27.9 nM | 10 nM | –
6 | C[C@@H](CCO)S(=O)(=O)C1(CN2CCn3c(ccc(C(=O)NCc4ccc(C#N)cc4)c3=O)C2=O)CC1 (single isomer, unassigned) [Example 8, N-(4-cyanobenzyl)-2-((1-((4-hydroxybutan-2-yl)sulfonyl)cyclopropyl)methyl)-1,6-dioxo-2,3,4,6-tetrahydro-1H-pyrido[1,2-a]pyrazine-7-carboxamide] | 4.6 nM | 111 nM | 784 nM | –
7 | O=C(NCc1ccc(Cl)cc1)c1ccc2n(c1=O)CCN(CC1(S(=O)(=O)C3(CO)CC3)CC1)C2=O [Example 10, N-(4-chlorobenzyl)-2-((1-((1-(hydroxymethyl)cyclopropyl)sulfonyl)cyclopropyl)methyl)-1,6-dioxo-2,3,4,6-tetrahydro-1H-pyrido[1,2-a]pyrazine-7-carboxamide] | 0.3 nM | 18.8 nM | 4.9 nM | –
8 | CC(C)(C)S(=O)(=O)C1(CN2CCn3c(ccc(C(=O)NCc4ccc(C#N)cc4)c3=O)C2=O)CC1 [Example 27] | 0.3 nM | 25.2 nM | 6.8 nM | –
9 | N#Cc1ccc(CNC(=O)c2ccc3n(c2=O)CCN(CC2(S(=O)(=O)C4CC4(F)F)CC2)C3=O)cc1 (stereo not drawn) [Example 98-1] | 1.5 nM | 57.5 nM | 65.2 nM | –
10 | CN(CCN1CCn2c(c(C#N)cc(C(=O)NCc3ccc(Cl)cc3)c2=O)C1=O)S(C)(=O)=O [Example 127] | 545 nM | 4790 nM | 19900 nM | –
11 | CN(C)C(=O)OC1(CN2CCn3c(ccc(C(=O)NCc4ccc(Cl)cc4)c3=O)C2=O)CC1 [Example 172, 1-((7-((4-chlorobenzyl)carbamoyl)-1,6-dioxo-1,3,4,6-tetrahydro-2H-pyrido[1,2-a]pyrazin-2-yl)methyl)cyclopropyl dimethyl carbamate] | 2400 nM | 71000 nM | 10000 nM | –
12 | Cc1cc(C(=O)NCc2ccc(C#N)cc2)c(=O)n2c1C(=O)N(CC1(S(C)(=O)=O)CC1)CC2 [Example 85, N-(4-cyanobenzyl)-9-methyl-2-((1-(methylsulfonyl)cyclopropyl)methyl)-1,6-dioxo-2,3,4,6-tetrahydro-111-pyrido[1,2-a]pyrazine-7-carboxamide] | 4.7 nM | 102 nM | – | 177 nM
13 | O=C(NCc1ccc(Cl)cc1)c1ccc2n(c1=O)CCN(CC1(S(=O)(=O)CCCO)CC1)C2=O [Example 25] | 2.8 nM | 80.8 nM | 88.9 nM | –
14 | C[S@@](=N)(=O)C1(CN2CCn3c(ccc(C(=O)NCc4ccc(Cl)cc4)c3=O)C2=O)CC1 (single isomer, unassigned) [Example 96-1] | 12.6 nM | 372 nM | 244 nM | –
15 | O=C(NCc1ccc(Cl)cc1)c1ccc2n(c1=O)CCN(CC1(S(=O)(=O)C3CCC3)CC1)C2=O [Example 78, N-(4-chlorobenzyl)-2-((1-(cyclobutylsulfonyl)cyclopropyl)methyl)-1,6-dioxo-2,3,4,6-tetrahydro-1H-pyrido[1,2-a]pyrazine-7-carboxamide] | 1 nM | 30 nM | 15.7 nM | –
16 | N#Cc1ccc(CNC(=O)c2ccc3n(c2=O)CCN(CC2(S(=O)(=O)[C@@H]4CC4(F)F)CC2)C3=O)cc1 (single isomer, unassigned) [Example 100-2] | 1 nM | 39.5 nM | 43.1 nM | –
17 | CC(CN1CCn2c(ccc(C(=O)NCc3ccc(Cl)cc3)c2=O)C1=O)S(=O)(=O)C1CC1 (stereo not drawn) [Example 191] | 76.5 nM | 5460 nM | 3460 nM | –
18 | N#Cc1ccc(CNC(=O)c2cc(F)c3n(c2=O)CCN(CC2(S(=O)(=O)C4CC4)CC2)C3=O)cc1 [Example 161] | 1.5 nM | 57.1 nM | 59.9 nM | –
19 | CC(C)S(=O)(=O)C1(CN2CCn3c(ccc(C(=O)NCc4ccc(C#N)cc4)c3=O)C2=O)CC1 [Example 32] | 1.6 nM | 49.5 nM | 52 nM | –
20 | CNS(=O)(=O)C1(CN2CCn3c(ccc(C(=O)NCc4ccc(Cl)cc4)c3=O)C2=O)CC1 [Example 74-2] | 1.6 nM | 52.1 nM | 14.5 nM | –
21 | CCS(=O)(=O)C1(CN2CCn3c(ccc(C(=O)NCc4ccc(C#N)cc4)c3=O)C2=O)CC1 [Example 35] | 2.6 nM | 68.9 nM | 54.4 nM | –
22 | CCS(=O)(=O)NC1(CN2CCn3c(ccc(C(=O)NCc4ccc(Cl)cc4)c3=O)C2=O)CC1 [Example 199] | 53.7 nM | 1110 nM | 1720 nM | –
23 | O=C(NCc1ccc(Cl)cc1)c1ccc2n(c1=O)CCN(CCN1CCCCC1=O)C2=O [Example 57] | 374 nM | 6130 nM | 7260 nM | –
24 | CNS(=O)(=O)C1(CN2CCn3c(ccc(C(=O)NCc4ccc(C#N)cc4)c3=O)C2=O)CC1 [Example 75-2] | 2.7 nM | 77.3 nM | 62.2 nM | –
25 | CS(=O)(=O)CCCN1CCn2c(c(C#N)cc(C(=O)NCc3ccc(Cl)cc3)c2=O)C1=O [Example 126] | 1200 nM | 1970 nM | 50000 nM | –
26 | O=C(NCc1ccc(Cl)cc1)c1ccc2n(c1=O)CCN(CC1(S(=O)(=O)C3(F)CC3)CC1)C2=O [Example 76, N-(4-chlorobenzyl)-2-((1-((1-fluorocyclopropyl)sulfonyl)cyclopropyl)methyl)-1,6-dioxo-2,3,4,6-tetrahydro-1H-pyrido[1,2-a]pyrazine-7-carboxamide] | 1.9 nM | 59.5 nM | 46.9 nM | –
27 | CN(CCN1CCn2c(c(CO)cc(C(=O)NCc3ccc(Cl)cc3)c2=O)C1=O)S(C)(=O)=O [Example 137, N-(4-chlorobenzyl)-9-(hydroxylmethyl)-2-(2-(N-methylmethylsulfonamido)ethyl)-1,6-dioxo-1,3,4,6-tetrahydro-2H-pyrido[1,2-a]pyrazine-7-carboxamide] | 348 nM | 3900 nM | 19700 nM | –
